# Laboratory results reported in patent publication US20190048016A1, “SUBSTITUTED BRIDGED UREA ANALOGS AS SIRTUIN MODULATORS” (GlaxoSmithKline Intellectual Property(No.2)Limited, priority 2014, published 2019).
# Molecular target: T1, SIRT1 (Homo sapiens, UniProt Q96EB6)
# T1 sequence (Q96EB6 1-747): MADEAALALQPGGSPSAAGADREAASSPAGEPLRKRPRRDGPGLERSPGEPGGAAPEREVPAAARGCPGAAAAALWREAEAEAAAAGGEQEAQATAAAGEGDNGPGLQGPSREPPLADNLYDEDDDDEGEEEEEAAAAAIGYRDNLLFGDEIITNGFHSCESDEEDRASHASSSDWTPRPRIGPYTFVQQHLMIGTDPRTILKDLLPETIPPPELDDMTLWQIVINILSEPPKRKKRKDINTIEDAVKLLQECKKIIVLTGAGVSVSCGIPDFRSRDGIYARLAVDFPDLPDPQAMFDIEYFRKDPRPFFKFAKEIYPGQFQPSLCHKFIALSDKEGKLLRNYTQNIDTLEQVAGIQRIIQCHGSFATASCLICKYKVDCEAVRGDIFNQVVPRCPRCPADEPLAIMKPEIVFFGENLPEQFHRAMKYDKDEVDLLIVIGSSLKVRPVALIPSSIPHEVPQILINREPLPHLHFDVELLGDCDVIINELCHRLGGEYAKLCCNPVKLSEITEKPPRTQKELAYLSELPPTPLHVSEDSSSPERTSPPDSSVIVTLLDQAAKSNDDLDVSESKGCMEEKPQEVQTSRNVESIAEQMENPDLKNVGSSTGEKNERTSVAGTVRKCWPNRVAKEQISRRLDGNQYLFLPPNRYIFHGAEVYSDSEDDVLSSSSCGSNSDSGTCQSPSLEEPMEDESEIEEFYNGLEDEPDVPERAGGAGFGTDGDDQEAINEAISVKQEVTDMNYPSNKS
# Assay: Trp mass spectrometry assay of SIRT1 activation (deacetylation of Ac-R-H-K-K(Ac)-W-NH2 peptide, OAADPR formation)
# Format: biochemical
# Conditions: Trp peptide 0.5 μM, 120 μM βNAD+, 10 nM SIRT1, 25 min, 25° C.; for Emax: 25 min, read-out: TRP MAX RESP (percent maximum fold activation relative to control = 100%)
# Source text: Mass spectrometry based assays were used to identify modulators of SIRT1 activity. The TAMRA based assay utilized a peptide having 20 amino acid residues as follows: Ac-EE-K(biotin)-[…](Ac)NleSTEG-K(5TMR)-EE-NH2 (SEQ ID NO: 1), wherein K(Ac) is an acetylated lysine residue and Nle is a norleucine. The peptide was labeled with the fluorophore 5TMR (excitation 540 nm/emission 580 nm) at the C-terminus. The sequence of the peptide substrate was based on p53 with several modifications. In addition, the methionine residue naturally present in the sequence was replaced with the norleucine because the methionine may be susceptible to oxidation during synthesis and purification. The Trp based assay utilized a peptide having an amino acid residues as follows: Ac-R-H-K-K(Ac)-W-NH2 (SEQ ID NO: 2).
# The Trp mass spectrometry assay was conducted as follows. 0.5 μM peptide substrate and 120 μM βNAD^+ were incubated with 10 nM SIRT1 for 25 minutes at 25° C. in a reaction buffer (50 mM HEPES pH 7.5, […], 1 mM DTT, 0.05% BSA). The SIRT1 protein was obtained by cloning the SirT1 gene into a T7-promoter containing vector, which was then expressed in BL21(DE3) bacterial cells and purified as described in further detail below. Test compound was added at varying concentrations to this reaction mixture and the resulting reactions were monitored. After the 25 minute incubation with SIRT1, 10 μL of 10% formic acid was added to stop the reaction. The resulting reactions were sealed and frozen for later mass spec analysis. The relative SIRT1 activity was then determined by measuring the amount of O-acetyl-ADP-ribose (OAADPR) formed (or, alternatively, the amount of deacetylated Trp peptide generated) by the NAD-dependent sirtuin deacetylation reaction in the presence of varying concentrations of the test compound versus control reactions lacking the test compound. The degree to which the test agent activated deacetylation by SIRT1 was expressed as EC1.5 (i.e., the concentration of compound required to increase SIRT1 activity by 50% over the control lacking test compound), and Percent Maximum Activation (i.e., the maximum activity relative to control (100%) obtained for the test compound).
# A control for inhibition of sirtuin activity was conducted by adding 1 μL of 500 mM nicotinamide as a negative control at the start of the reaction (e.g., permits determination of maximum sirtuin inhibition). A control for activation of sirtuin activity was conducted using 10 nM of sirtuin protein, with 1 μL of DMSO in place of compound, to determine the amount of deacetylation of the substrate at a given time point within the linear range of the assay. This time point was the same as that used for test compounds and, within the linear range, the endpoint represents a change in velocity.
# For the above assay, SIRT1 protein was expressed and purified as follows. The SirT1 gene was cloned into a T7-promoter containing vector and transformed into BL21(DE3). The protein was expressed by induction with 1 mM IPTG as an N-terminal His-tag fusion protein at 18° C. overnight and harvested at 30,000×g. Cells were lysed with lysozyme in lysis buffer (50 mM Tris-HCl, 2 mM Tris[2-carboxyethyl] phosphine (TCEP), 10 μM ZnCl2, 200 mM NaCl) and further treated with sonication for 10 min for complete lysis. The protein was purified over a Ni-NTA column (Amersham) and fractions containing pure protein were pooled, concentrated and run over a sizing column (Sephadex S200 26/60 global). The peak containing soluble protein was collected and run on an Ion-exchange column (MonoQ). Gradient elution (200 mM-500 mM NaCl) yielded pure protein. This protein was concentrated and dialyzed against dialysis buffer (20 mM Tris-HCl, 2 mM TCEP) overnight. The protein was aliquoted and frozen at −80° C. until further use.
# Sirtuin-modulating compounds of Formula (I) that activated SIRT1 were identified using the assay described above and are shown below in Table 1. […]
SMILES,Emax,"TRP Activity (EC1.5, concentration of compound required to increase SIRT1 activity by 50% over control)",TRP MAX RESP (percent maximum fold activation relative to control = 100%)
"O=C(Nc1ccnc(OC[C@@H](O)CO)n1)N1c2nc(-c3cccc(C(F)(F)F)c3)c(Cl)cc2N2CCC[C@H]1C2 [Example 81, (9S)-3-chloro-N-(2-((S)-2,3-dihydroxypropoxy)pyrimidin-4-yl)-2-(3-(trifluoromethyl)phenyl)-8,9-dihydro-6H-5,9-methanopyrido[2,3-b][1,4]diazocine-10(7H)-carboxamide]",≥ 150%,A (EC1.5<1 μM),–
"O=C(Nc1ccccn1)N1c2nc(-c3ccnc(C(F)(F)F)c3)ccc2N2CCC[C@H]1C2 [Example 7, (9S)-N-(pyridin-2-yl)-2-(2-(trifluoromethyl)pyridin-4-yl)-8,9-dihydro-6H-5,9-methanopyrido[2,3-b][1,4]diazocine-10(7H)-carboxamide]",≥ 150%,A (EC1.5<1 μM),–
"O=C(Nc1cnccn1)N1c2nc(N3CCC[C@H](C(F)(F)F)C3)ccc2N2CCC[C@H]1C2 (single isomer, unassigned) [Example 27]",≥ 150%,A (EC1.5<1 μM),–
"O=C(Nc1cccnc1)N1c2nc(N3CCCC(C(F)(F)F)C3)ccc2N2CCC[C@H]1C2 (single isomer, unassigned) [Example 28]",–,A (EC1.5<1 μM),–
"O=C(Nc1ccnc(OC[C@H](O)CO)n1)N1c2nc(-c3cccc(C(F)(F)F)c3)c(Cl)cc2N2CCC[C@H]1C2 [Example 88, (9S)-3-chloro-N-(2-((R)-2,3-dihydroxypropoxy)pyrimidin-4-yl)-2-(3-(trifluoromethyl)phenyl)-8,9-dihydro-6H-5,9-methanopyrido[2,3-b][1,4]diazocine-10(7H)-carboxamide]",≥ 150%,A (EC1.5<1 μM),–
"O=C(Nc1ccc(OC[C@H](O)CO)nc1)N1c2nc(-c3cccc(C(F)(F)F)c3)c(Cl)cc2N2CCC[C@H]1C2 [Example 79, (9S)-3-chloro-N-(6-((R)-2,3-dihydroxypropoxy)pyridin-3-yl)-2-(3-(trifluoromethyl)phenyl)-8,9-dihydro-6H-5,9-methanopyrido[2,3-b][1,4]diazocine-10(7H)-carboxamide]",≥ 150%,A (EC1.5<1 μM),–
"Cc1cc(-c2ccc3c(n2)N(C(=O)Nc2cccnc2)[C@H]2CCCN3C2)ccn1 [Example 32, (9S)-2-(2-methylpyridin-4-yl)-N-(pyridin-3-yl)-8,9-dihydro-6H-5,9-methanopyrido[2,3-b][1,4]diazocine-10(7H)-carboxamide]",≥ 150%,A (EC1.5<1 μM),–
"O=C(Nc1ccccn1)N1c2nc(N3CCC(C(F)(F)F)C3)ccc2N2CCC[C@H]1C2 (single isomer, unassigned) [Example 8]",≥ 150%,B (EC1.5 1-25 μM),–
"O=C(Nc1cccc(OC[C@H](O)CO)n1)N1c2nc(-c3cccc(C(F)(F)F)c3)c(Cl)cc2N2CCC[C@H]1C2 [Example 65, (9S)-3-chloro-N-(6-((R)-2,3-dihydroxypropoxy)pyridin-2-yl)-2-(3-(trifluoromethyl)phenyl)-8,9-dihydro-6H-5,9-methanopyrido[2,3-b][1,4]diazocine-10(7H)-carboxamide]",≥ 150%,A (EC1.5<1 μM),–
"O=C(Nc1cccnc1)N1c2nc(N3CCCC(C(F)(F)F)C3)ccc2N2CCC[C@H]1C2 (single isomer, unassigned) [Example 25]",≥ 150%,A (EC1.5<1 μM),–
O=C(Nc1nccc(OC[C@@H](O)CO)n1)N1c2nc(-c3cccc(C(F)(F)F)c3)c(Cl)cc2N2CCC[C@H]1C2 [Example 75],≥ 150%,A (EC1.5<1 μM),–

# Continued, values first:
Emax,"TRP Activity (EC1.5, concentration of compound required to increase SIRT1 activity by 50% over control)",TRP MAX RESP (percent maximum fold activation relative to control = 100%),SMILES
≥ 150%,A (EC1.5<1 μM),–,"O=C(Nc1cccnn1)N1c2nc(-c3ccnc(C(F)(F)F)c3)ccc2N2CCC[C@H]1C2 [Example 6, (9S)-N-(pyridazin-3-yl)-2-(2-(trifluoromethyl)pyridin-4-yl)-8,9-dihydro-6H-5,9-methanopyrido[2,3-b][1,4]diazocine-10(7H)-carboxamide]"
–,B (EC1.5 1-25 μM),A (Fold activation≥150%),"O=C(Nc1ccc(F)cn1)N1c2nc(N3CCCC(C(F)(F)F)C3)ccc2N2CCC[C@H]1C2 (single isomer, unassigned) [Example 29]"
≥ 150%,A (EC1.5<1 μM),–,"O=C(Nc1cc(OC[C@H](O)CO)ccn1)N1c2nc(-c3cccc(C(F)(F)F)c3)c(Cl)cc2N2CCC[C@H]1C2 [Example 82, (9S)-3-chloro-N-(4-((R)-2,3-dihydroxypropoxy)pyridin-2-yl)-2-(3-(trifluoromethyl)phenyl)-8,9-dihydro-6H-5,9-methanopyrido[2,3-b][1,4]diazocine-10(7H)-carboxamide]"
≥ 150%,A (EC1.5<1 μM),–,"O=C(Nc1ccnc(OC[C@@H](O)CO)c1)N1c2nc(-c3cccc(C(F)(F)F)c3)c(Cl)cc2N2CCC[C@H]1C2 [Example 83, (9S)-3-chloro-N-(2-((S)-2,3-dihydroxypropoxy)pyridin-4-yl)-2-(3-(trifluoromethyl)phenyl)-8,9-dihydro-6H-5,9-methanopyrido[2,3-b][1,4]diazocine-10(7H)-carboxamide]"
≥ 150%,B (EC1.5 1-25 μM),–,"O=C(Nc1cc(OC[C@H](O)CO)ncn1)N1c2nc(-c3cccc(C(F)(F)F)c3)c(Cl)cc2N2CCC[C@H]1C2 [Example 70, (9S)-3-chloro-N-(6-((R)-2,3-dihydroxypropoxy)pyrimidin-4-yl)-2-(3-(trifluoromethyl)phenyl)-8,9-dihydro-6H-5,9-methanopyrido[2,3-b][1,4]diazocine-10(7H)-carboxamide]"
